# Assay results reported in patent US8637549B2, “Pyridons as PDK1 inhibitors” (Boehringer Ingelheim International GmbH, priority 2008, dated 2014).
# Marks after values point to notes of the source that are not given here.
# Biological target: T1, His6-PDK1 (aa 52-556) (Homo sapiens, UniProt O15530)
# T1 construct: 15 μL His6-PDK1 (aa 52-556) 3.33 ng/well) and PDKtide; host or cells: baculovirus-infected insect cells
# T1 sequence (O15530 52-556): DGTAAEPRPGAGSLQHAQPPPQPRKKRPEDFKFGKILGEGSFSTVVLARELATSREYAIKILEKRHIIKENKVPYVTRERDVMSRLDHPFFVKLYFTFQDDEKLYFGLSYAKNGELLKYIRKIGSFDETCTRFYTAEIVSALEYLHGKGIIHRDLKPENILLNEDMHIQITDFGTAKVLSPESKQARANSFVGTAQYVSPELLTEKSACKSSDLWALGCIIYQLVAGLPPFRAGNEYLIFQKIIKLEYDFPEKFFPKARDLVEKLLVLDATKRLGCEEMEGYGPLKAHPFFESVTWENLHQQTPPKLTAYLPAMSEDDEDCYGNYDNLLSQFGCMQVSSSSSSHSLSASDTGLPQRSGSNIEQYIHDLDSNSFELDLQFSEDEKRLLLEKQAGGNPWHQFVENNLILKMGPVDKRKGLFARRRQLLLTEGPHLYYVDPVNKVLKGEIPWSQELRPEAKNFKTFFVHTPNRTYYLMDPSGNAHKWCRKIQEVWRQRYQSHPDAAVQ
# Experiment: PDK1 kinase assay III (with Tween 20)
# Assay type: biochemical
# Conditions: 10 μM compound, residual enzyme activity relative to DMSO control, unmarked values, read-out: % CTL
# Description: Another PDK1 assay was developed which by comparison with PDK1 assay 1 additionally contains Tween 20:
# The following components are combined in a well of a 96-well round-based dish (Messrs. Greiner bio-one, No. 650101): • 15 μL of compound to be tested in varying concentrations (e.g. Starting at 10 μM, and diluted in steps of 1:5) in APT buffer (50 mM tris/C1 pH7.5; 0.05% β-mercaptoethanol; 10 mM Mg-acetate; 0.0166% Tween 20; 3.33% DMSO) • 15 μL His6-PDK1 (aa 52-556) 3.33 ng/well) and PDKtide (KTFCGTPEYLAPEVRRE […]), synthesised by Pepceuticals Limited, Nottingham, United Kingdom; 25 μM final concentration); His6-PDK1 and PDKtide are together diluted accordingly in assay buffer (50 mM tris pH 7.5, 0.05% β-mercaptoethanol, 10 mM Mg-acetate); PDKtide is present in this mixture as an 83.3 μM solution. These 30 μL are routinely incubated for 30 min at RT. • 20 μL ATP solution (25 μM ATP with 1.0 μCi/well gamma-P33-ATP). The final concentration of Tween 20 is 0.005%.
# The reaction is started by adding the ATP solution and the mixture is incubated for 90 min at ambient temperature; at the start of the reaction the dishes are shaken gently. The reaction is stopped by the addition of 50 μL/well of 500 mM phosphoric acid (H3PO4) and incubated for about 20 min at ambient temperature. The precipitate is transferred by harvesting onto filter plates (96-well microtitre filter plate: UniFilter GF/C; Messrs Perkin Elmer; No. 6005174), then washed 6 times with 50 mM H3PO4 and dried at 60° C. Then the plate is stuck down with sealing tape, 25 μL/well of scintillation solution (Microscint 0; Messrs. Perkin Elmer; No. 6013611) are added and the amount of P33 precipitated is measured using the Wallac Betacounter. The measured data are evaluated using Graphpad Prism software.
# (§1) The % CTL values indicate the residual activity of the enzyme after the addition of the inhibitory compound in the solvent DMSO in relation to the enzyme activity in the solvent DMSO without the addition of a compound (control). The majority of the values were determined using the PDK1 kinase assay III described hereinbefore. The values marked with an asterisk (*) were determined using the PDK1 kinase assay II described hereinbefore.
row,remaining activity at 10 µM,SMILES
1,13.6%,"CN(C)Cc1ccc(Nc2ncc3cc(/C=C/CNC(=O)c4cccn(Cc5ccc(Cl)nc5)c4=O)ccc3n2)cc1 [III-13, 1-[(6-chloropyridin-3-yl)methyl]-N-{(2E)-3-[2-({4-[(dimethylamino)methyl]-phenyl}amino)quinazolin-6-yl]prop-2-en-1-yl}-2-oxo-1,2-dihydropyridine-3-carboxamide]"
2,17.2%,"CN1CCC(Nc2ccc(Nc3ncc4cc(/C=C/CNC(=O)c5cccn(Cc6ccc(C(F)(F)F)nc6)c5=O)ccc4n3)cc2F)CC1 [III-14, N-{(2E)-3-[2-({3-fluoro-4-[(1-methylpiperidin-4-yl)amino]phenyl}amino)quinazolin-6-yl]prop-2-en-1-yl}-2-oxo-1-{[6-(trifluoromethyl)pyridin-3-yl]methyl}-1,2-dihydropyridine-3-carboxamide]"
3,21%,"CN1CCC(N(C)c2ccc(Nc3ncc4cc(/C=C/CNC(=O)c5cccn(Cc6ccc(C(F)(F)F)nc6)c5=O)ccc4n3)cc2)CC1 [III-15, N-{(2E)-3-[2-({4-[methyl(1-methylpiperidin-4-yl)amino]phenyl}amino)quinazolin-6-yl]prop-2-en-1-yl}-2-oxo-1-{[6-(trifluoromethyl)pyridin-3-yl]methyl}-1,2-dihydropyridine-3-carboxamide]"
4,19.2%,"CN(C)Cc1ccc(Nc2ncc3cc(/C=C/CNC(=O)c4cccn(Cc5ccc(C(F)(F)F)nc5)c4=O)ccc3n2)cc1 [III-16, N-{(2E)-3-[2-({4-[(dimethylamino)methyl]phenyl}amino)quinazolin-6-yl]prop-2-en-1-yl}-2-oxo-1-{[6-(trifluoromethyl)pyridin-3-yl]methyl}-1,2-dihydropyridine-3-carboxamide]"

# Further lines, the compound ahead of its results:
row,SMILES,remaining activity at 10 µM
1,"Cc1ccc(Cn2cccc(C(=O)NC/C=C/c3ccc4c(c3)NC(=O)/C4=C\c3cnc[nH]3)c2=O)cn1 [I-24, N-{(2E)-3-[(3Z)-3-(1H-imidazol-5-ylmethylidene)-2-oxo-2,3-dihydro-1H-indol-6-yl]prop-2-en-1-yl}-1-[(6-methylpyridin-3-yl)methyl]-2-oxo-1,2-dihydropyridine-3-carboxamide]",20.1%
2,"O=C1Nc2cc(/C=C/CNC(=O)c3cccn(CC4CCCCC4)c3=O)ccc2/C1=C/c1cnc[nH]1 [I-25, 1-(cyclohexylmethyl)-N-{(2E)-3-[(3Z)-3-(1H-imidazol-5-ylmethylidene)-2-oxo-2,3-dihydro-1H-indol-6-yl]prop-2-en-1-yl}-2-oxo-1,2-dihydropyridine-3-carboxamide]",15.1%
3,"Cn1cncc1Cn1cccc(C(=O)NC/C=C/c2ccc3c(c2)NC(=O)/C3=C\c2cnc[nH]2)c1=O [I-26, N-{(2E)-3-[(3Z)-3-(1H-imidazol-5-ylmethylidene)-2-oxo-2,3-dihydro-1H-indol-6-yl]prop-2-en-1-yl}-1-[(1-methyl-1H-imidazol-5-yl)methyl]-2-oxo-1,2-dihydropyridine-3-carboxamide]",34.1%
4,"Cn1cnc(Cn2cccc(C(=O)NC/C=C/c3ccc4c(c3)NC(=O)/C4=C\c3cnc[nH]3)c2=O)c1 [I-27, N-{(2E)-3-[(3Z)-3-(1H-imidazol-5-ylmethylidene)-2-oxo-2,3-dihydro-1H-indol-6-yl]prop-2-en-1-yl}-1-[(1-methyl-1H-imidazol-4-yl)methyl]-2-oxo-1,2-dihydropyridine-3-carboxamide]",47.7%
5,"CN(C)Cc1ccc(Nc2ncc3cc(C#CCNC(=O)c4cccn(Cc5ccc(C(F)(F)F)nc5)c4=O)ccc3n2)cc1 [II-6, N-{3-[2-({4-[(dimethylamino)methyl]phenyl}amino)quinazolin-6-yl]prop-2-yn-1-yl}-2-oxo-1-{[6-(trifluoromethyl)pyridin-3-yl]methyl}-1,2-dihydropyridine-3-carboxamide]",16%
6,"CN1CCC(Nc2ccc(Nc3ncc4cc(C#CCNC(=O)c5cccn(Cc6ccc(C(F)(F)F)nc6)c5=O)ccc4n3)cc2F)CC1 [II-7, N-{3-[2-({3-fluoro-4-[(1-methylpiperidin-4-yl)amino]phenyl}amino)quinazolin-6-yl]prop-2-yn-1-yl}-2-oxo-1-{[6-(trifluoromethyl)pyridin-3-yl]methyl}-1,2-dihydropyridine-3-carboxamide]",18.6%
7,"CN(C)Cc1ccc(Nc2ncc3cc(/C=C/CNC(=O)c4cccn(Cc5cccnc5)c4=O)ccc3n2)cc1 [III-12, N-{(2E)-3-[2-({4-[(dimethylamino)methyl]phenyl}amino)quinazolin-6-yl]prop-2-en-1-yl}-2-oxo-1-(pyridin-3-ylmethyl)-1,2-dihydropyridine-3-carboxamide]",18.3%

# Biological target: T2, ΔPH-PDK1 (shortened PDK1 enzyme aa 51-359; Q66A mutation) (Homo sapiens, UniProt O15530, Q66A)
# T2 construct: a shortened PDK1 enzyme (aa 51-359; Q66A mutation) is used; His6 (N, cleaved yes); made in house
# T2 sequence (O15530 51-359 Q66A): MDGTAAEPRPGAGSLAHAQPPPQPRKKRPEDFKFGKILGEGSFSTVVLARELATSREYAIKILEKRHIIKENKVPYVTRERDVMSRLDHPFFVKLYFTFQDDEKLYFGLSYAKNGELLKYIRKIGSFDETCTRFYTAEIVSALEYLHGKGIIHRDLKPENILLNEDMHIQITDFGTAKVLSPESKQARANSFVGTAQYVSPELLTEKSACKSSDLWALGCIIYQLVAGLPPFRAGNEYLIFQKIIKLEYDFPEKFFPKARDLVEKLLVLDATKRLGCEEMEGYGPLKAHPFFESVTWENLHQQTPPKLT
# Experiment: PDK1 kinase assay II
# Assay type: biochemical
# Conditions: 10 μM compound, residual enzyme activity relative to DMSO control, values marked with asterisk (*)
# Description: Another assay was developed in which a shortened PDK1 enzyme (aa 51-359; Q66A mutation) is used that carries in the N-terminal position a His6 tag that is cleaved during purification. (ΔPH-PDK1). […]
# The reaction is started by adding the ATP solution and the mixture is incubated for 120 min at ambient temperature; at the start of the reaction the dishes are shaken gently. […] Then the plate is stuck down with sealing tape, 25 μL/well of scintillation solution (Microscint 0; Messrs. Perkin Elmer; No. 6013611) are added and the amount of P33 precipitated is measured using the Wallac Betacounter. The measured data are evaluated using Graphpad Prism software.
# as §1
row,% CTL,SMILES
1,15.6* %,"CN(C)Cc1ccc(Nc2ncc3cc(C#CCNC(=O)c4cccn(Cc5cccnc5)c4=O)ccc3n2)cc1 [II-5, N-{3-[2-({4-[(dimethylamino)methyl]phenyl}amino)quinazolin-6-yl]prop-2-yn-1-yl}-2-oxo-1-(pyridin-3-ylmethyl)-1,2-dihydropyridine-3-carboxamide]"
2,47.0* %,"CN1CCC(N(C)c2ccc(Nc3ncc4cc(C#CCNC(=O)c5cccn(Cc6ccc(C(F)(F)F)nc6)c5=O)ccc4n3)cc2)CC1 [II-8, N-{3-[2-({4-[methyl(1-methylpiperidin-4-yl)amino]phenyl}amino)quinazolin-6-yl]prop-2-yn-1-yl}-2-oxo-1-{[6-(trifluoromethyl)pyridin-3-yl]methyl}-1,2-dihydropyridine-3-carboxamide]"
